Laboratory results reported in patent US9005633B2 (priority 2009, dated 2015).
Read-outs that look alike come from different tables or passages of the source.

How the values were obtained:
Settings in all cases: 10 ug/ml AMT, 200 mW/cm2 UV-A
VEE TC 83 TVB 5215 = assay type: cell-based, Venezuelan Equine Encephalitis (VEE)
YF (FMD 1240) = assay type: cell-based, Yellow Fever (YF)
[1] = test system: WNV (CDC) M29539 (NY99-35262-11); experiment: AMT photo-inactivation of arbovirus: West Nile Virus; assay type: cell-based, West Nile Virus (WNV)
SLE TBH-28 CDC M29777 = experiment: AMT photo-inactivation of arbovirus: Saint Louis Encephalitis; assay type: cell-based, Saint Louis Encephalitis (SLE)

Cc1oc2c(C)c3oc(=O)cc(C)c3cc2c1CN.Cl [AMT, 4′-Aminomethyltrioxsalen hydrochloride]
VEE TC 83 TVB 5215 titer after AMT and UV-A (VEE TC 83 TVB 5215; 0 minutes): 1.72E+09 PFU/ml | VEE TC 83 TVB 5215 titer after AMT and UV-A (VEE TC 83 TVB 5215; 1 minute): 1.60E+08 PFU/ml | VEE TC 83 TVB 5215 titer after AMT and UV-A (VEE TC 83 TVB 5215; 5 minutes): 4.80E+04 PFU/ml | VEE TC 83 TVB 5215 titer after AMT and UV-A (VEE TC 83 TVB 5215; 10 minutes): 1.50E+02 PFU/ml | VEE TC 83 TVB 5215 titer after AMT and UV-A (VEE TC 83 TVB 5215; 20 minutes): 0 PFU/ml | YF (FMD 1240) titer after AMT and UV-A (YF (FMD 1240); 0 minutes): 1.47E+05 PFU/ml | YF (FMD 1240) titer after AMT and UV-A (YF (FMD 1240); 1 minute): 3.68E+04 PFU/ml | YF (FMD 1240) titer after AMT and UV-A (YF (FMD 1240); 5 minutes): 9.00E+01 PFU/ml | YF (FMD 1240) titer after AMT and UV-A (YF (FMD 1240); 10 minutes): 0 PFU/ml | YF (FMD 1240) titer after AMT and UV-A (YF (FMD 1240); 20 minutes): 0 PFU/ml | WNV (CDC) M29539 (NY99-35262-11) titer after AMT and UV-A ([1]; 0 minutes): 8.00E+04 PFU/ml | WNV (CDC) M29539 (NY99-35262-11) titer after AMT and UV-A ([1]; 1 minute): 1.68E+04 PFU/ml | WNV (CDC) M29539 (NY99-35262-11) titer after AMT and UV-A ([1]; 5 minutes): 5.00E+01 PFU/ml | WNV (CDC) M29539 (NY99-35262-11) titer after AMT and UV-A ([1]; 10 minutes): 0 PFU/ml | WNV (CDC) M29539 (NY99-35262-11) titer after AMT and UV-A ([1]; 20 minutes): 0 PFU/ml | SLE TBH-28 CDC M29777 titer after AMT and UV-A (SLE TBH-28 CDC M29777; 0 minutes): 3.20E+03 PFU/ml | SLE TBH-28 CDC M29777 titer after AMT and UV-A (SLE TBH-28 CDC M29777; 1 minute): 8.00E+01 PFU/ml | SLE TBH-28 CDC M29777 titer after AMT and UV-A (SLE TBH-28 CDC M29777; 5 minutes): 0 PFU/ml | SLE TBH-28 CDC M29777 titer after AMT and UV-A (SLE TBH-28 CDC M29777; 10 minutes): 0 PFU/ml | SLE TBH-28 CDC M29777 titer after AMT and UV-A (SLE TBH-28 CDC M29777; 20 minutes): 0 PFU/ml
